Legend:
Assay in all cases: Test E pre-/postemergence plant response
Format in all cases: in vivo
[1] = system: Italian ryegrass (Lolium multiflorum); conditions: scale 0 to 100
From the text: (§1) Seeds of plant species selected from bermudagrass (Cynodon dactylon), Surinam grass (Brachiaria decumbens), large crabgrass (Digitaria sanguinalis), green foxtail (Setaria viridis), goosegrass (Eleusine indica), johnsongrass (Sorghum halepense), kochia (Kochia scoparia), pitted morningglory (Ipomoea lacunosa), purple nutsedge (Cyperus rotundus), common ragweed (Ambrosia elation), black mustard (Brassica nigra), guineagrass (Panicum maximum), dallisgrass (Paspalum dilatatum), barnyardgrass (Echinochloa crus-galli), southern (S.) sandbur (Cenchrus echinatus), common sowthistle (Sonchus oleraceous), prickly sida (Sida spinosa), Italian ryegrass (Lolium multiflorum), common purslane (Portulaca oleracea), broadleaf signalgrass (Brachiaria platyphylla), common groundsel (Senecio vulgaris), common chickweed (Stellaria media), Virginia (V.) dayflower (Commelina virginica), tropical (T.) spiderwort (Commelina benghalensis), annual bluegrass (Poa annua), naked crabgrass (Digitaria nuda), itchgrass (Rottboellia cochinchinensis), quackgrass (Elytrigia repens), Canada horseweed (Conyza canadensis), field bindweed (Convolvulus arvensis), spanishneedles (Bidens bipinnata), common mallow (Malva sylvestris) and Russian thistle (Salsola kali) were planted and treated preemergence with test chemicals formulated in a non-phytotoxic solvent mixture which included a surfactant. At the same time, plants selected from these weed species were treated with postemergence applications of some of the test chemicals formulated in the same manner. Plants ranged in height from 2 to 18 cm (1- to 4-leaf stage) for postemergence treatments.
(§2) Treated plants and controls were maintained in a greenhouse for 14 to 21 days, after which time all species were compared to controls and visually evaluated. Plant response ratings, summarized in Table E, are based on a scale of 0 to 100 where 0 is no effect and 100 is complete control. A dash (-) response means no test result.

[2] = system: annual bluegrass (Poa annua); conditions: scale 0 to 100
From the text: as §1, §2

[3] = system: barnyardgrass (Echinochloa crus-galli); conditions: scale 0 to 100
From the text: as §1, §2

[4] = system: black mustard (Brassica nigra); conditions: scale 0 to 100
From the text: as §1, §2

[5] = system: broadleaf signalgrass (Brachiaria platyphylla); conditions: scale 0 to 100
From the text: as §1, §2

[6] = system: common groundsel (Senecio vulgaris); conditions: Postemergence, scale 0 to 100
From the text: as §1, §2

[7] = system: common mallow (Malva sylvestris); conditions: Postemergence, scale 0 to 100
From the text: as §1, §2

[8] = system: common purslane (Portulaca oleracea); conditions: scale 0 to 100
From the text: as §1, §2

[9] = system: dallisgrass (Paspalum dilatatum); conditions: scale 0 to 100
From the text: as §1, §2

[10] = system: green foxtail (Setaria viridis); conditions: scale 0 to 100
From the text: as §1, §2

[11] = system: itchgrass (Rottboellia cochinchinensis); conditions: scale 0 to 100
From the text: as §1, §2

[12] = system: johnsongrass (Sorghum halepense); conditions: scale 0 to 100
From the text: as §1, §2

[13] = system: large crabgrass (Digitaria sanguinalis); conditions: scale 0 to 100
From the text: as §1, §2

[14] = system: naked crabgrass (Digitaria nuda); conditions: scale 0 to 100
From the text: as §1, §2

[15] = system: pitted morningglory (Ipomoea lacunosa); conditions: scale 0 to 100
From the text: as §1, §2

[16] = system: purple nutsedge (Cyperus rotundus); conditions: scale 0 to 100
From the text: as §1, §2

[17] = system: surinam grass (Brachiaria decumbens); conditions: scale 0 to 100
From the text: as §1, §2

## CCc1cc(-c2ccc(Cl)cc2)nn1-c1c(O)cnn(C)c1=O [Compound 21]
[1]; 16 g ai/ha, Preemergence
  Plant response rating, Ryegrass, Italian: 100
[1]; 31 g ai/ha, Preemergence
  Plant response rating, Ryegrass, Italian: 100
[1]; 62 g ai/ha, Preemergence
  Plant response rating, Ryegrass, Italian: 100
[1]; Postemergence, 8 g ai/ha
  Plant response rating, Ryegrass, Italian: 80
[1]; Postemergence, 16 g ai/ha
  Plant response rating, Ryegrass, Italian: 98
[1]; Postemergence, 31 g ai/ha
  Plant response rating, Ryegrass, Italian: 100
[1]; Postemergence, 62 g ai/ha
  Plant response rating, Ryegrass, Italian: 100
[2]; 8 g ai/ha, Preemergence
  Plant response rating, Bluegrass: 0
[2]; 16 g ai/ha, Preemergence
  Plant response rating, Bluegrass: 0
[2]; 31 g ai/ha, Preemergence
  Plant response rating, Bluegrass: 0
[2]; 62 g ai/ha, Preemergence
  Plant response rating, Bluegrass: 0
[2]; Postemergence, 8 g ai/ha
  Plant response rating, Bluegrass: 0
[2]; Postemergence, 16 g ai/ha
  Plant response rating, Bluegrass: 0
[2]; Postemergence, 31 g ai/ha
  Plant response rating, Bluegrass: 10
[2]; Postemergence, 62 g ai/ha
  Plant response rating, Bluegrass: 15
[3]; 8 g ai/ha, Preemergence
  Plant response rating, Barnyardgrass: 95
[3]; 16 g ai/ha, Preemergence
  Plant response rating, Barnyardgrass: 100
[3]; 31 g ai/ha, Preemergence
  Plant response rating, Barnyardgrass: 100
[3]; 62 g ai/ha, Preemergence
  Plant response rating, Barnyardgrass: 100
[3]; Postemergence, 8 g ai/ha
  Plant response rating, Barnyardgrass: 100
[3]; Postemergence, 16 g ai/ha
  Plant response rating, Barnyardgrass: 100
[3]; Postemergence, 31 g ai/ha
  Plant response rating, Barnyardgrass: 100
[3]; Postemergence, 62 g ai/ha
  Plant response rating, Barnyardgrass: 100
[4]; 8 g ai/ha, Preemergence
  Plant response rating, Mustard, Black: 0
[4]; 16 g ai/ha, Preemergence
  Plant response rating, Mustard, Black: 0
[4]; 31 g ai/ha, Preemergence
  Plant response rating, Mustard, Black: 0
[4]; 62 g ai/ha, Preemergence
  Plant response rating, Mustard, Black: 0
[4]; Postemergence, 8 g ai/ha
  Plant response rating, Mustard, Black: 0
[4]; Postemergence, 16 g ai/ha
  Plant response rating, Mustard, Black: 0
[4]; Postemergence, 31 g ai/ha
  Plant response rating, Mustard, Black: 0
[4]; Postemergence, 62 g ai/ha
  Plant response rating, Mustard, Black: 0
[5]; 16 g ai/ha, Preemergence
  Plant response rating, Signalgrass: 98
[5]; 31 g ai/ha, Preemergence
  Plant response rating, Signalgrass: 100
[5]; 62 g ai/ha, Preemergence
  Plant response rating, Signalgrass: 100
[5]; Postemergence, 8 g ai/ha
  Plant response rating, Signalgrass: 80
[5]; Postemergence, 16 g ai/ha
  Plant response rating, Signalgrass: 90
[5]; Postemergence, 31 g ai/ha
  Plant response rating, Signalgrass: 100
[5]; Postemergence, 62 g ai/ha
  Plant response rating, Signalgrass: 100
[6]; 8 g ai/ha
  Plant response rating, Groundsel: 0
[6]; 62 g ai/ha
  Plant response rating, Groundsel: 0
[7]; 8 g ai/ha
  Plant response rating, Mallow: 0
[7]; 16 g ai/ha
  Plant response rating, Mallow: 0
[7]; 31 g ai/ha
  Plant response rating, Mallow: 0
[7]; 62 g ai/ha
  Plant response rating, Mallow: 0
[8]; 16 g ai/ha, Preemergence
  Plant response rating, Purslane: 0
[8]; 31 g ai/ha, Preemergence
  Plant response rating, Purslane: 0
[8]; 62 g ai/ha, Preemergence
  Plant response rating, Purslane: 0
[8]; Postemergence, 8 g ai/ha
  Plant response rating, Purslane: 0
[8]; Postemergence, 16 g ai/ha
  Plant response rating, Purslane: 0
[8]; Postemergence, 31 g ai/ha
  Plant response rating, Purslane: 0
[8]; Postemergence, 62 g ai/ha
  Plant response rating, Purslane: 0
[9]; 8 g ai/ha, Preemergence
  Plant response rating, Dallisgrass: 80
[9]; 16 g ai/ha, Preemergence
  Plant response rating, Dallisgrass: 100
[9]; 31 g ai/ha, Preemergence
  Plant response rating, Dallisgrass: 100
[9]; 62 g ai/ha, Preemergence
  Plant response rating, Dallisgrass: 100
[9]; Postemergence, 8 g ai/ha
  Plant response rating, Dallisgrass: 75
[9]; Postemergence, 16 g ai/ha
  Plant response rating, Dallisgrass: 80
[9]; Postemergence, 31 g ai/ha
  Plant response rating, Dallisgrass: 85
[9]; Postemergence, 62 g ai/ha
  Plant response rating, Dallisgrass: 98
[10]; 8 g ai/ha, Preemergence
  Plant response rating, Foxtail, Green: 75
[10]; 16 g ai/ha, Preemergence
  Plant response rating, Foxtail, Green: 100
[10]; 31 g ai/ha, Preemergence
  Plant response rating, Foxtail, Green: 100
[10]; 62 g ai/ha, Preemergence
  Plant response rating, Foxtail, Green: 100
[10]; Postemergence, 8 g ai/ha
  Plant response rating, Foxtail, Green: 65
[10]; Postemergence, 16 g ai/ha
  Plant response rating, Foxtail, Green: 75
[10]; Postemergence, 31 g ai/ha
  Plant response rating, Foxtail, Green: 95
[10]; Postemergence, 62 g ai/ha
  Plant response rating, Foxtail, Green: 100
[11]; 16 g ai/ha, Preemergence
  Plant response rating, Itchgrass: 65
[11]; 31 g ai/ha, Preemergence
  Plant response rating, Itchgrass: 75
[11]; 62 g ai/ha, Preemergence
  Plant response rating, Itchgrass: 80
[11]; Postemergence, 8 g ai/ha
  Plant response rating, Itchgrass: 50
[11]; Postemergence, 16 g ai/ha
  Plant response rating, Itchgrass: 65
[11]; Postemergence, 31 g ai/ha
  Plant response rating, Itchgrass: 75
[11]; Postemergence, 62 g ai/ha
  Plant response rating, Itchgrass: 75
[12]; 16 g ai/ha, Preemergence
  Plant response rating, Johnsongrass: 75
[12]; 31 g ai/ha, Preemergence
  Plant response rating, Johnsongrass: 90
[12]; 62 g ai/ha, Preemergence
  Plant response rating, Johnsongrass: 95
[12]; Postemergence, 8 g ai/ha
  Plant response rating, Johnsongrass: 50
[12]; Postemergence, 16 g ai/ha
  Plant response rating, Johnsongrass: 65
[12]; Postemergence, 31 g ai/ha
  Plant response rating, Johnsongrass: 85
[12]; Postemergence, 62 g ai/ha
  Plant response rating, Johnsongrass: 100
[13]; 8 g ai/ha, Preemergence
  Plant response rating, Crabgrass, Large: 65
[13]; 16 g ai/ha, Preemergence
  Plant response rating, Crabgrass, Large: 100
[13]; 31 g ai/ha, Preemergence
  Plant response rating, Crabgrass, Large: 100
[13]; 62 g ai/ha, Preemergence
  Plant response rating, Crabgrass, Large: 100
[13]; Postemergence, 8 g ai/ha
  Plant response rating, Crabgrass, Large: 80
[13]; Postemergence, 16 g ai/ha
  Plant response rating, Crabgrass, Large: 90
[13]; Postemergence, 31 g ai/ha
  Plant response rating, Crabgrass, Large: 95
[13]; Postemergence, 62 g ai/ha
  Plant response rating, Crabgrass, Large: 98
[14]; 16 g ai/ha, Preemergence
  Plant response rating, Crabgrass, Naked: 95
[14]; 31 g ai/ha, Preemergence
  Plant response rating, Crabgrass, Naked: 100
[14]; 62 g ai/ha, Preemergence
  Plant response rating, Crabgrass, Naked: 100
[14]; Postemergence, 8 g ai/ha
  Plant response rating, Crabgrass, Naked: 80
[14]; Postemergence, 16 g ai/ha
  Plant response rating, Crabgrass, Naked: 90
[14]; Postemergence, 31 g ai/ha
  Plant response rating, Crabgrass, Naked: 98
[14]; Postemergence, 62 g ai/ha
  Plant response rating, Crabgrass, Naked: 100
[15]; 16 g ai/ha, Preemergence
  Plant response rating, Morningglory: 0
[15]; 31 g ai/ha, Preemergence
  Plant response rating, Morningglory: 0
[15]; 62 g ai/ha, Preemergence
  Plant response rating, Morningglory: 0
[15]; Postemergence, 8 g ai/ha
  Plant response rating, Morningglory: 0
[15]; Postemergence, 16 g ai/ha
  Plant response rating, Morningglory: 0
[15]; Postemergence, 31 g ai/ha
  Plant response rating, Morningglory: 0
[15]; Postemergence, 62 g ai/ha
  Plant response rating, Morningglory: 0
[16]; 16 g ai/ha, Preemergence
  Plant response rating, Nutsedge, Purple: 0
[16]; 31 g ai/ha, Preemergence
  Plant response rating, Nutsedge, Purple: 0
[16]; 62 g ai/ha, Preemergence
  Plant response rating, Nutsedge, Purple: 0
[16]; Postemergence, 8 g ai/ha
  Plant response rating, Nutsedge, Purple: 0
[16]; Postemergence, 16 g ai/ha
  Plant response rating, Nutsedge, Purple: 0
[16]; Postemergence, 31 g ai/ha
  Plant response rating, Nutsedge, Purple: 0
[16]; Postemergence, 62 g ai/ha
  Plant response rating, Nutsedge, Purple: 0
[17]; 16 g ai/ha, Preemergence
  Plant response rating, Surinam Grass: 100
[17]; 31 g ai/ha, Preemergence
  Plant response rating, Surinam Grass: 100
[17]; 62 g ai/ha, Preemergence
  Plant response rating, Surinam Grass: 100
[17]; Postemergence, 8 g ai/ha
  Plant response rating, Surinam Grass: 95
[17]; Postemergence, 16 g ai/ha
  Plant response rating, Surinam Grass: 95
[17]; Postemergence, 31 g ai/ha
  Plant response rating, Surinam Grass: 100
[17]; Postemergence, 62 g ai/ha
  Plant response rating, Surinam Grass: 100

Source: patent US20100267561A1, “HERBICIDAL PYRIDAZINONE DERIVATIVES” (priority 2007, published 2010)
